Experiments:
[1] = Spectroscopic evaluation of the flower water for chlorine dioxide; type: physicochemical; conditions: third day of the tests; uncovered beakers, tap water
From the text: As may be seen from the results set forth in Table 1, the roses in the beaker containing no chlorine dioxide had the shortest lifetime. […] Roses with less or more chlorine dioxide had intermediate lifetimes. […] This was not surprising since the beakers were uncovered and chlorine dioxide could readily escape or decompose.

fresh red roses = assay: Cut flower life test: 5 fresh red roses per beaker of treated tap water, monitored daily for bloom death; type: in vivo, rose; conditions: for Average Flower Life: 5 per beaker
Procedure: In the following examples, test were conducted with fresh red roses obtained from a single source. The stems were cut (under water) and, for each experimental test, 5 roses were placed in a beaker. The same person monitored the flowers every day (the criterion for bloom death was that the monitor would have discarded the roses if the roses were in the monitor's home). Thereafter, the average flower life in days was calculated for each experimental condition.
Five beakers of 800 ml tap water containing 0, 2, 5, 10 and 15 ppm chlorine dioxide were used for these tests.
Example 1 was repeated using tap water alone, tap water containing 5 ppm chlorine dioxide, tap water containing “Aquaplus®” and tap water containing 5 ppm chlorine dioxide and “Aquaplus®”. “Aquaplus®” is described as a fresh flower nutrient and water clarifier and was obtained from Syndicate Sales, Kokomo, Ind.

**Q.** What does the source list for `[O][Cl+][O-]` [Chlorine Dioxide, chlorine dioxide]?
**A.** Chlorine dioxide present in the flower water [1]: no chlorine dioxide was present; Average Flower Life (fresh red roses; 2 ppm chlorine dioxide in 800 ml tap water): 5.6 days; Change of lifetime of the roses compared to no chlorine dioxide / plain water control (fresh red roses; 5 ppm chlorine dioxide): approximately doubled; Average Flower Life (fresh red roses; 5 ppm chlorine dioxide in 800 ml tap water): 7.8 days; Average Flower Life (fresh red roses; 10 ppm chlorine dioxide in 800 ml tap water): 5.8 days; Average Flower Life (fresh red roses; 15 ppm chlorine dioxide in 800 ml tap water): 5.8 days; Flower Lifetime (fresh red roses; Example 2, tap water containing 5 ppm ClO2): 7.8 days
